# Biological target: T1, EGFR-expressing A431 cells (Homo sapiens, UniProt P00533)
# T1 construct: host or cells: A431 cells
# Test: Confocal fluorescence microscopy binding
# Type: cell-based
# Settings: 10 ug/mL, 2 hr at 37° C.
# Protocol: A431, SKOV3, and NIH3T3 cells were obtained from ATCC (Manassas, Va.). The NIH3T3 cells were transfected with HER2 genes (3T3/HER2+), in order to overexpress HER2 receptors (Di Fiore et al., Science 1987, 237, 178-182). All of the cell lines were grown at 37° C. in the presence of 5% CO2 in DMEM medium supplemented with 1% L-glutamine, and 5% FBS. For the confocal fluorescence microscopy experiments cells were plated in Lab-Tek chambered slides (#178599 Nalge Nunc) at an appropriate dilution and allowed to attach overnight at 37° C. prior to treatment. […] The individual cell lines seeded on chambered slides with 60-80% confluency were incubated for 2 hr at 37° C. in the dark. After incubation the cell culture medium was removed and slides were washed three times with PBS (pH=7.4) and immediately fixed in 4% paraformaldehyde prepared in PBS (pH=7.4) for 5 min at room temperature. Fluorescent mounting medium (S3023, DakoCytomation) was added at the time the slide was covered with a cover glass to stabilize the fluorophores before and during confocal microscopy. […] Fluorescence (Cy5.5 or Cy7) and DIC images were collected simultaneously using a 63x Plan-Apochromat 1.4 NA oil immersion objective and a long pass 650 nm emission filter. […]
# T1 sequence (P00533 25-1210): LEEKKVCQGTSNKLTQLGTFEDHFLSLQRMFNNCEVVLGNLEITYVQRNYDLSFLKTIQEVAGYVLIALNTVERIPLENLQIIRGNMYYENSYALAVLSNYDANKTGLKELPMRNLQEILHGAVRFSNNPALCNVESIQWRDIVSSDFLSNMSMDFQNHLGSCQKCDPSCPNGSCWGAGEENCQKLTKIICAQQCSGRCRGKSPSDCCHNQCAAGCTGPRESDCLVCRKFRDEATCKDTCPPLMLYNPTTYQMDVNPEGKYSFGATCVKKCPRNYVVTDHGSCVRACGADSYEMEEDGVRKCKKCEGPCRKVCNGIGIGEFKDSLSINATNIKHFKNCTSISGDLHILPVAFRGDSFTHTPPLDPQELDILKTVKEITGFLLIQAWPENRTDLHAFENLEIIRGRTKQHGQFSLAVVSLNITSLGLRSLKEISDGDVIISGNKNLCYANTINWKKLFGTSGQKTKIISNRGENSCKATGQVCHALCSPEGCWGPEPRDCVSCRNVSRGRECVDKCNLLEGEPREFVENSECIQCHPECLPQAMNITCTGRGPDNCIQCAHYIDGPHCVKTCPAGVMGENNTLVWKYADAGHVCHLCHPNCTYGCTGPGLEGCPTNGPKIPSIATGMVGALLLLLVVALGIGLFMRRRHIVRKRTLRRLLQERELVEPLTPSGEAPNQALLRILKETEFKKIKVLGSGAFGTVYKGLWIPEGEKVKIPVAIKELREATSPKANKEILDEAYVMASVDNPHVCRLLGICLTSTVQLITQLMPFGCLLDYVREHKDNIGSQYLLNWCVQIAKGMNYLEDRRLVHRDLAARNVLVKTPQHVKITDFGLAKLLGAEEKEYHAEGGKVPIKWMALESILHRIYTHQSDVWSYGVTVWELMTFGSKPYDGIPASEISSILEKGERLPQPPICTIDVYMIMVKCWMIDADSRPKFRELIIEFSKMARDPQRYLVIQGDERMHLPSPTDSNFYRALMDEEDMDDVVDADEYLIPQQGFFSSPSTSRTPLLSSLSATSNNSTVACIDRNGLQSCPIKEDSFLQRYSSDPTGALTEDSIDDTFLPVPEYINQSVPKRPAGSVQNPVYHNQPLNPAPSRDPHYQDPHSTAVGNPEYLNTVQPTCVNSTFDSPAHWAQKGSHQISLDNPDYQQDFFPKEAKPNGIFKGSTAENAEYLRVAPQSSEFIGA
compound,measurement,value
CC[N+]1=C(/C=C/C=C/C=C/C=C2/N(CCCCCC(=O)N[C@@H](CCCCNC(=O)C3CCC(CN4C(=O)CC(SCCCC(=N)NC)C4=O)CC3)C(=O)Nc3ccc(C[C@H](CN(CC(=O)O)[C@H]4CCCC[C@@H]4N(CC(=O)O)CC(=O)O)N(CC(=O)O)CC(=O)O)cc3)c3ccc(S(=O)(=O)O)cc3C2(C)C)C(C)(C)c2cc(S(=O)(=O)[O-])ccc21 (stereo partly shown) [imaging agent 11],binding / fluorescent labeling,specifically labels
